# In PubChem BioAssay AID1963965 (Molecular Pharmacology Branch, DTP, NCI, 2024):
# System: 996289-038-R-J1-PDC spheroid viability
# Assay: Anticancer human tumor 996289-038-R-J1-PDC patient-derived colon adenocarcinoma cell line growth inhibition [PI3K]
# Details: spheroids with HUVEC and MSC; for IC50: curve of first compound; for viability, T/C: stronger effect = lower value
# In short: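 Tumor cells grown as multi-cell spheroids with HUVEC endothelial cells and MSC fibroblast-like stroma were treated with targeted agents combined with inavolisib, alpelisib, duvelisib or copanlisib. Doses fell in half-log steps from near clinical Cmax, else from 10 microM. Viability was measured.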
# [1] = second compound 0.00316 µM, first compound 0.0316 µM
# [2] = second compound 0.00316 µM, first compound 0.1 µM
# [3] = second compound 0.01 µM, first compound 0.0316 µM
# [4] = second compound 0.01 µM, first compound 0.1 µM
# [5] = second compound 0.0316 µM, first compound 0.0316 µM
# [6] = second compound 0.0316 µM, first compound 0.1 µM
# [7] = second compound 0.1 µM, first compound 0.0316 µM
# [8] = second compound 0.1 µM, first compound 0.1 µM
# [9] = second compound 0.316 µM, first compound 0.0316 µM
# [10] = second compound 0.316 µM, first compound 0.1 µM
# [11] = second compound 1 µM, first compound 0.0316 µM
# [12] = second compound 1 µM, first compound 0.1 µM
# 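Note: spheroids exposed to compounds for seven days before viability read.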
# 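Throughout, for viability, T/C: luminescence used as a proxy for viable cell amount; percent viability relative to DMSO vehicle control as 100%.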
smiles,measurement,setting,value
Cn1ncc(Cl)c1-c1cc(C(=O)NC(CN)Cc2cccc(F)c2)sc1Cl (centres undefined) + CC(Nc1ccc2c(c1)OCCn1cc(N3C(=O)OCC3C(F)F)nc1-2)C(N)=O,IC50,second compound 0.00316 µM,> 10000 nM
same,IC50,second compound 0.01 µM,7330 nM
same,IC50,second compound 0.0316 µM,4620 nM
same,IC50,second compound 0.1 µM,1840 nM
same,IC50,second compound 0.316 µM,1830 nM
same,IC50,second compound 1 µM,352 nM
same,"viability, T/C",[1],83.3%
same,"viability, T/C",[2],82.9%
same,"viability, T/C","second compound 0.00316 µM, first compound 0.316 µM",84.3%
same,"viability, T/C","second compound 0.00316 µM, first compound 1 µM",80%
same,"viability, T/C","second compound 0.00316 µM, first compound 3.16 µM",60%
same,"viability, T/C","second compound 0.00316 µM, first compound 10 µM",54.5%
same,"viability, T/C",[3],111%
same,"viability, T/C",[4],97%
same,"viability, T/C","second compound 0.01 µM, first compound 0.316 µM",83.8%
same,"viability, T/C","second compound 0.01 µM, first compound 1 µM",73.7%
same,"viability, T/C","second compound 0.01 µM, first compound 3.16 µM",58.6%
same,"viability, T/C","second compound 0.01 µM, first compound 10 µM",46.5%
same,"viability, T/C",[5],87.2%
same,"viability, T/C",[6],84.2%
same,"viability, T/C","second compound 0.0316 µM, first compound 0.316 µM",76.6%
same,"viability, T/C","second compound 0.0316 µM, first compound 1 µM",64.8%
same,"viability, T/C","second compound 0.0316 µM, first compound 3.16 µM",61.3%
same,"viability, T/C","second compound 0.0316 µM, first compound 10 µM",35.5%
same,"viability, T/C",[7],77.8%
same,"viability, T/C",[8],80.2%
same,"viability, T/C","second compound 0.1 µM, first compound 0.316 µM",63.9%
same,"viability, T/C","second compound 0.1 µM, first compound 1 µM",56%
same,"viability, T/C","second compound 0.1 µM, first compound 3.16 µM",46%
same,"viability, T/C","second compound 0.1 µM, first compound 10 µM",33.6%
same,"viability, T/C",[9],66.9%
same,"viability, T/C",[10],59.6%
same,"viability, T/C","second compound 0.316 µM, first compound 0.316 µM",75.7%
same,"viability, T/C","second compound 0.316 µM, first compound 1 µM",55.3%
same,"viability, T/C","second compound 0.316 µM, first compound 3.16 µM",43.2%
same,"viability, T/C","second compound 0.316 µM, first compound 10 µM",28.9%
same,"viability, T/C",[11],53.5%
same,"viability, T/C",[12],52.6%
same,"viability, T/C","second compound 1 µM, first compound 0.316 µM",52.6%
same,"viability, T/C","second compound 1 µM, first compound 1 µM",43.9%
same,"viability, T/C","second compound 1 µM, first compound 3.16 µM",38.4%
same,"viability, T/C","second compound 1 µM, first compound 10 µM",25.8%
Cn1ncnc1[C@H]1c2n[nH]c(=O)c3cc(F)cc(c23)N[C@@H]1c1ccc(F)cc1 + COc1c(OCCCN2CCOCC2)ccc2c3n(c(=NC(=O)c4cnc(N)nc4)nc12)CCN3,IC50,second compound 0.00316 µM,> 100 nM
same,IC50,second compound 0.01 µM,> 100 nM
same,IC50,second compound 0.0316 µM,> 100 nM
same,IC50,second compound 0.1 µM,> 100 nM
same,IC50,second compound 0.316 µM,< 0.316 nM
same,IC50,second compound 1 µM,< 0.316 nM
same,"viability, T/C","second compound 0.00316 µM, first compound 0.000316 µM",110%
same,"viability, T/C","second compound 0.00316 µM, first compound 0.001 µM",106%
same,"viability, T/C","second compound 0.00316 µM, first compound 0.00316 µM",102%
same,"viability, T/C","second compound 0.00316 µM, first compound 0.01 µM",112%
same,"viability, T/C",[1],103%
same,"viability, T/C",[2],103%
same,"viability, T/C","second compound 0.01 µM, first compound 0.000316 µM",97.7%
same,"viability, T/C","second compound 0.01 µM, first compound 0.001 µM",92.6%
same,"viability, T/C","second compound 0.01 µM, first compound 0.00316 µM",95.3%
same,"viability, T/C","second compound 0.01 µM, first compound 0.01 µM",100%
same,"viability, T/C",[3],97.3%
same,"viability, T/C",[4],100%
same,"viability, T/C","second compound 0.0316 µM, first compound 0.000316 µM",87.8%
same,"viability, T/C","second compound 0.0316 µM, first compound 0.001 µM",91.3%
same,"viability, T/C","second compound 0.0316 µM, first compound 0.00316 µM",80.3%
same,"viability, T/C","second compound 0.0316 µM, first compound 0.01 µM",79.4%
same,"viability, T/C",[5],97.7%
same,"viability, T/C",[6],70.8%
same,"viability, T/C","second compound 0.1 µM, first compound 0.000316 µM",69.4%
same,"viability, T/C","second compound 0.1 µM, first compound 0.001 µM",68.4%
same,"viability, T/C","second compound 0.1 µM, first compound 0.00316 µM",67.4%
same,"viability, T/C","second compound 0.1 µM, first compound 0.01 µM",63.3%
same,"viability, T/C",[7],64.6%
same,"viability, T/C",[8],48.6%
same,"viability, T/C","second compound 0.316 µM, first compound 0.000316 µM",41.8%
same,"viability, T/C","second compound 0.316 µM, first compound 0.001 µM",39.1%
same,"viability, T/C","second compound 0.316 µM, first compound 0.00316 µM",46.8%
same,"viability, T/C","second compound 0.316 µM, first compound 0.01 µM",35.3%
same,"viability, T/C",[9],44.2%
same,"viability, T/C",[10],43.8%
same,"viability, T/C","second compound 1 µM, first compound 0.000316 µM",22.6%
same,"viability, T/C","second compound 1 µM, first compound 0.001 µM",22.6%
same,"viability, T/C","second compound 1 µM, first compound 0.00316 µM",23.1%
same,"viability, T/C","second compound 1 µM, first compound 0.01 µM",18.3%
same,"viability, T/C",[11],25.7%
same,"viability, T/C",[12],20.8%
